{"source": "patent US20260265304A1", "about": "“PEPTIDE INHIBITORS OF FOCAL ADHESION KINASE ACTIVITY AND USES THEREOF” (Arizona Board of Regents on Behalf of the University of …, priority 2019, published 2026)", "molecules": {"B1": {"name": "2014 (peptide)", "peptide": "Ac-NL[R8]EEDRLL[S5]EEN-NH2", "modifications": "staple 3-10", "SMILES": "CC(=O)N[C@@H](CC(N)=O)C(=O)N[C@@H](CC(C)C)C(=O)N[C@]1(C)CCCCCCC=CCCC[C@@](C)(C(=O)N[C@@H](CCC(=O)O)C(=O)N[C@@H](CCC(=O)O)C(=O)N[C@@H](CC(N)=O)C(N)=O)NC(=O)[C@H](CC(C)C)NC(=O)[C@H](CC(C)C)NC(=O)[C@H](CCCNC(=N)N)NC(=O)[C@H](CC(=O)O)NC(=O)[C@H](CCC(=O)O)NC(=O)[C@H](CCC(=O)O)NC1=O", "notes": "non-active molecule"}}, "key": {"[1]": {"tested_on": "LX2 human liver stellate cells", "assay": "Anti-fibrotic activity in TGF-β-induced stellate cells (Western blot, morphology)", "type": "cell-based", "protocol": "A. Western blot studies of LX2 cells treated with 2 ng/ml TGF-β for 17 h to induce pro-fibrotic phenotypes. […] Quantification of fibronectin results are shown in the lower panel. B. Morphological changes of LX2 cells after TGF-β and peptide treatment for 17 h. Images were captured using bright field microscopy.\nExperiments were conducted to test the anti-fibrotic effects of stapled peptides targeting the FAK FAT domain (FIG. 13). TGF-β induction was performed in LX-2 human liver stellate cells to promote a pro-fibrotic phenotypic and differentiation to myofibroblast-like cells."}, "trypsin": {"biological_target": "T1, trypsin (Bos taurus, UniProt P00760)", "T1 construct": "purchased ThermoFisher", "T1 sequence (P00760 24-246)": "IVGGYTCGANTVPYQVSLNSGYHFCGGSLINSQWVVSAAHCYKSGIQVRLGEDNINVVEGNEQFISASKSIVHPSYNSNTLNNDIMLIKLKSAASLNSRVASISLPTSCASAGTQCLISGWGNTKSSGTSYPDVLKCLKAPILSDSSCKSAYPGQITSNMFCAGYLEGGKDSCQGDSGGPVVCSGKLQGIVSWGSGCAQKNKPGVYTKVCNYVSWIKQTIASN", "assay": "In vitro trypsin digest assay (trypsin-agarose beads, LC-MS)", "type": "in vitro ADME", "details": "trypsin-agarose beads in physiological buffer, read-out: t1/2 in trypsin digest (protease resistance) (converted)", "protocol": "Assays were performed using trypsin-agarose beads (ThermoFisher) and measurement of peptide concentration using LC-MS. Peptide half-lives were calculated using GraphPad Prism software.\nTrypsin-agarose beads were used to test the potential cleavage of peptides in a physiological buffer and LC-MS was used as the analytical method to determine peptide concentration."}, "HUVEC cells": {"tested_on": "HUVEC cells", "assay": "3D Matrigel-on-top proliferation assay in normal cells", "type": "cell-based", "protocol": "(§1) B. 3D structure of negative control molecule (UACC-2020). C. 3D Matrigel-on-top cell proliferation data of stapled peptides in SK-MEL-103 melanoma cells.\n(§2) A negative control myristoylated peptide (2020) was designed and synthesized based on non-active molecule 2014. Experiments were conducted to test the efficacy of these peptides in 3D proliferation assays using SK-MEL-103 melanoma cells. […] Furthermore, 2012 had no effects on the proliferation of normal HUVEC cells (IC50=NA) (FIG. 7)."}, "[2]": {"biological_target": "T2, FAK FAT domain (biotinylated Avitag-FAT protein) (Homo sapiens, UniProt Q05397)", "T2 construct": "biotinylated Avitag-FAT protein was diluted in running buffer", "T2 sequence (Q05397 914-1045 limits assumed)": "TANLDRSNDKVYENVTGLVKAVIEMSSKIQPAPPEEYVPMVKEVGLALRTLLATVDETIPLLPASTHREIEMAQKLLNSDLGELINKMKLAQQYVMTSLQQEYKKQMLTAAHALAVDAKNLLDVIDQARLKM", "assay": "Surface plasmon resonance (SPR) binding to immobilised FAT protein", "details": "FAT protein immobilised, peptide 200 μM-0.01 μM, 1:1 binding model; read-out: SPR KD"}, "[3]": {"tested_on": "SK-MEL-103 melanoma cells", "assay": "3D Matrigel-on-top proliferation assay", "type": "cell-based", "details": "for IC50: SK-MEL-103 melanoma cells, 3D Matrigel-on-top", "protocol": "(§3) B. Competition FP experiment with 1907 showing inhibition of TAMRA-LD2 binding to FAT. C. SPR binding and selectivity analysis using WT FAT and Mutant FAT (L994E, 1936A) at the helix-protein interface. D. Flow cytometry analysis of Rhodamine-1907 (10 μM) cellular uptake in MDA-MB-453 breast cancer cells. E. Boyden-chamber invasion assays in SK-MEL-103 melanoma cells. F. 3D Matrigel-on-top proliferation assays in SK-MEL-103 melanoma cells.\nas §1, §2"}, "[4]": {"biological_target": "T2, FAK FAT domain (biotinylated Avitag-FAT protein)", "assay": "Surface plasmon resonance (SPR) binding to immobilised FAT protein", "details": "two-site binding model"}, "[5]": {"tested_on": "SK-MEL-103 melanoma cells", "assay": "Boyden-chamber invasion assay", "type": "cell-based", "details": "SK-MEL-103, compared to Defactinib relative to compound KD", "protocol": "as §3\n(§4) To further evaluate the activity of 1907, experiments were conducted that tested the peptide in a flow cytometry-based cell permeability assay. […] Experiments were also conducted to test the cellular efficacy in SK-MEL-103 melanoma cells."}, "[6]": {"tested_on": "MDA-MB-453 breast cancer cells", "assay": "Flow cytometry-based cell permeability assay", "details": "MDA-MB-453 cells, 10 μM, compared to Rhodamine only control", "protocol": "as §3, §4\nFlow cytometry assays performed on the Canto II flow cytometer (BD Biosciences) were utilized to measure cellular uptake of TAMRA-tagged peptides. In brief, the instrument was properly gated using cells treated with TAMRA-only as a positive control. Also, cells treated with untagged peptide were used as a negative control to rule out non-specific signal. Cells were treated with TAMRA-tagged peptides for a duration of 2 h-48 h to measure cellular uptake. Permeability of peptide was reported as % positivity relative to TAMRA positive control and mean fluorescence intensity (MFI)."}, "[7]": {"biological_target": "T3, biotinylated Avitag-FAT protein (UniProt Q05397 919-1052, limits assumed, biotinylated (Avitag))", "T3 construct": "domain: FAT; Immobilised on a streptavidin sensor for SPR; also called WT FAT; FAT domain of FAK; not shown: Avitag", "T3 sequence (looked up)": "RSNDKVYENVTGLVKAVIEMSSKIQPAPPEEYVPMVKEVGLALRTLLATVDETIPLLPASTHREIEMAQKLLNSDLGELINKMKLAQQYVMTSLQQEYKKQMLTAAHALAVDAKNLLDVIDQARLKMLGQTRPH", "assay": "SPR, biotinylated Avitag-FAT immobilised", "protocol": "SPR binding studies were performed on a ForteBio Pioneer FE SPR system. In brief, a SADH Streptavidin in Dextran Hydrogel biosensor (ForteBio) was docked onto the flow cell and preconditioned with two injections of 10 mM NaOH, 1 M NaCl for 1 min at 50 μL/min. […] Empty channel 2 served as the reference control. After achieving a stable baseline, a concentration series (200 μM-0.01 μM) of peptide was prepared in final running buffer (100 mM Tris-HCl, 200 mM NaCl, 0.05% Tween-20, 5% DMSO) and injected using the OneStep gradient injection method at a flow rate of 75 μL/min. 3% sucrose was utilized as a bulk standard control for OneStep injection and a DMSO calibration curve was performed using a concentration range of 3.5% to 6.5% DMSO. Raw SPR data were appropriately processed in Qdat software (ForteBio) by normalizing the baseline prior to injection, aligning the channels, subtraction of the reference channel, and blank subtraction. Kinetic data were fitted to a pseudo-first order 1:1 interaction binding model using to calculate KD. In addition, a steady-state model and Req data points were used to validate the binding affinity. Visual inspection of the SPR sensograms was performed to verify appropriate model fitting, lack of mass transport effects, return to baseline, and lack of irregular kinetics."}}, "note": "Read-outs that look alike come from different tables or passages of the source. Positions of bridges follow the written chain, without caps; N, C: chain ends. Non-standard residues stand in square brackets, D forms with d. Residues, ends and D or L forms follow the SMILES beside them. R8 = C=CCCCCCC[C@@](C)(N)C(=O)O; S5 = C=CCCC[C@](C)(N)C(=O)O"}
{"molecule": "CCCCCCCCCCCCCC(=O)N[C@@H](CC(N)=O)C(=O)N[C@@H](CC(C)C)C(=O)N[C@]1(C)CCCCCCC=CCCC[C@@](C)(C(=O)N[C@@H](CCC(=O)O)C(=O)N[C@@H](CC(C)C)C(=O)N[C@@H](CC(N)=O)C(N)=O)NC(=O)[C@H](CC(C)C)NC(=O)[C@H](CC(C)C)NC(=O)[C@H](CCCNC(=N)N)NC(=O)[C@H](CC(=O)O)NC(=O)[C@H](CC(C)C)NC(=O)[C@H](CCC(=O)O)NC1=O", "note": "[Peptide 2012, Myristoyl-NLR8ELDRLLS5ELN-NH2]", "values": [{"measurement": "TGF-β-induced expression of fibronectin", "setting": "[1]; LX2 cells, 2 ng/ml TGF-β 17 h, peptide 10, 5, 2 μM pretreated 1 h", "value": "reduced the TGF-β-induced expression of fibronectin, a marker of fibrosis, in a dose-dependent manner"}, {"measurement": "morphological change of TGF-β-induced cells", "setting": "[1]; LX-2 cells, TGF-β and peptide treatment 17 h, bright field microscopy", "value": "induced a morphological change"}, {"measurement": "half-life", "setting": "trypsin", "value": "> 48", "unit": "h"}, {"measurement": "3D proliferation IC50", "setting": "HUVEC cells", "value": "no effects"}, {"measurement": "Kd", "setting": "[2]", "value": "> 200", "unit": "µM"}, {"measurement": "IC50", "setting": "[3]", "value": 5.5, "unit": "µM"}]}
{"molecule": "CC(=O)N[C@@H](CC(N)=O)C(=O)N[C@@H](CC(C)C)C(=O)N[C@]1(C)CCCCCCC=CCCC[C@@](C)(C(=O)N[C@@H](CCC(=O)O)C(=O)N[C@@H](CC(C)C)C(=O)N[C@@H](CC(N)=O)C(N)=O)NC(=O)[C@H](CC(C)C)NC(=O)[C@H](CC(C)C)NC(=O)[C@H](CCCCN)NC(=O)[C@H](CC(=O)O)NC(=O)[C@H](CC(C)C)NC(=O)[C@H](CCC(=O)O)NC1=O", "note": "[Peptide 2028, Ac-NLR8ELDKLLS5ELN-NH2] (Ac-NL[R8]ELDKLL[S5]ELN-NH2; staple 3-10)", "values": [{"measurement": "Kd", "setting": "[4]; SPR KD (1), site (1)", "value": 1.36, "unit": "µM"}, {"measurement": "Kd", "setting": "[4]; read-out: SPR KD (2), site (2)", "value": 10.9, "unit": "µM"}]}
{"molecule": "CC(=O)N[C@@H](CC(N)=O)C(=O)N[C@@H](CC(C)C)C(=O)N[C@]1(C)CCCCCC/C=C/CCC[C@@](C)(C(=O)N[C@@H](CCC(=O)O)C(=O)N[C@@H](CC(C)C)C(=O)N[C@@H](CC(N)=O)C(N)=O)NC(=O)[C@H](CC(C)C)NC(=O)[C@H](CC(C)C)NC(=O)[C@H](CCCNC(=N)N)NC(=O)[C@H](CC(=O)O)NC(=O)[C@H](CC(C)C)NC(=O)[C@H](CCC(=O)O)NC1=O", "note": "[Peptide 1907, Ac-NLR8ELDRLLS5ELN-NH2]", "values": [{"measurement": "half-life", "setting": "trypsin", "value": 15.7, "unit": "h"}, {"measurement": "inhibition of invasion", "setting": "[5]", "value": "effectively inhibited"}, {"measurement": "inhibition of 3D proliferation", "setting": "[3]; SK-MEL-103, compared to Defactinib relative to compound KD", "value": "effectively inhibited"}, {"measurement": "IC50", "setting": "[3]", "value": 60, "unit": "µM"}]}
{"molecule": "CCN(CC)c1ccc2c(-c3ccccc3C(=O)NCCC(=O)N[C@@H](CC(N)=O)C(=O)N[C@@H](CC(C)C)C(=O)N[C@]3(C)CCCCCCC=CCCC[C@@](C)(C(=O)N[C@@H](CCC(=O)O)C(=O)N[C@@H](CC(C)C)C(=O)N[C@@H](CC(N)=O)C(N)=O)NC(=O)[C@H](CC(C)C)NC(=O)[C@H](CC(C)C)NC(=O)[C@H](CCCNC(=N)N)NC(=O)[C@H](CC(=O)O)NC(=O)[C@H](CC(C)C)NC(=O)[C@H](CCC(=O)O)NC3=O)c3ccc(=[N+](CC)CC)cc-3oc2c1", "note": "[Peptide 2016, RhoB-1907]", "values": [{"measurement": "cellular uptake / crossing of the cell membrane", "setting": "[6]", "value": "successfully crossed the cell membrane"}]}
{"molecule": "CC(=O)N[C@@H](CC(N)=O)C(=O)N[C@@H](CC(C)C)C(=O)N[C@@H](CO)C(=O)N[C@@H](CCC(=O)O)C(=O)N[C@@H](CC(C)C)C(=O)N[C@@H](CC(=O)O)C(=O)N[C@@H](CCCNC(=N)N)C(=O)N[C@@H](CC(C)C)C(=O)N[C@@H](CC(C)C)C(=O)N[C@@H](CC(C)C)C(=O)N[C@@H](CCC(=O)O)C(=O)N[C@@H](CC(C)C)C(=O)N[C@@H](CC(N)=O)C(N)=O", "note": "[Peptide 1967, reference compound]", "values": [{"measurement": "half-life", "setting": "trypsin", "value": 0.69, "unit": "h"}]}
{"molecule": "B1", "values": [{"measurement": "Kd", "setting": "[7]", "value": "> 200", "unit": "µM"}]}
